The record followed here is patent US9221810B2, “Substituted bicyclic aromatic compounds as S-nitrosoglutathione reductase inhibitors” (Nivalis Therapeutics, Inc., priority 2010, dated 2015).

In this assay the target is T1, GSNOR (Homo sapiens, UniProt P11766).
T1 construct: made in house; host or cells: E. coli (arabinose-induced)
Briefly: GSNOR assay (inhibition of GSNOR activity, NADH absorbance at 340 nm). Format: biochemical. The note with it: printed as 'about <'; 0.240 mM GSNO, 0.300 mM NADH, pH 7.4, 25° C. On the procedure: GSNOR expression and purification is described in Biochemistry 2000, 39, 10720-10729.
GSNOR Fermentation: Pre-cultures were grown from stabs of a GSNOR glycerol stock in 2XYT media containing 100 ug/ml ampicillin after an overnight incubation at 37° C. Cells were then added to fresh 2XYT (4 L) containing ampicillin and grown to an OD (A600) of 0.6-0.9 at 37° C. before induction. GSNOR expression was induced with 0.1% arabinose in an overnight incubation at 20° C.
GSNOR Purification: E. coli cell paste was lysed by nitrogen cavitation and the clarified lysate purified by Ni affinity chromatography on an AKTA FPLC (Amersham Pharmacia). The column was eluted in 20 mM Tris pH 8.0/250 mM NaCl with a 0-500 mM imidazole gradient. Eluted GSNOR fractions containing the Smt-GSNOR fusion were digested overnight with Ulp-1 at 4° C. to remove the affinity tag then re-run on the Ni column under the same conditions. GSNOR was recovered in the flowthrough fraction and for crystallography is further purified by Q-Sepharose and Heparin flowthrough chromatography in 20 mM Tris pH 8.0, 1 mM DTT, 10 uM ZnSO4.
GSNOR Assay: GSNO and enzyme/NADH Solutions are made up fresh each day. The solutions are filtered and allowed to warm to room temperature. GSNO solution: 100 mM NaPO4 (pH 7.4), 0.480 mM GSNO. 396 μL of GSNO Solution is added to a cuvette followed by 8 μL of test compound in DMSO (or DMSO only for full reaction control) and mixed with the pipette tip. Compounds to be tested are made up at a stock concentration of 10 mM in 100% DMSO. 2 fold serial dilutions are done in 100% DMSO. 8 μL of each dilution are added to an assay so that the final concentration of DMSO in the assay is 1%. The concentrations of compounds tested range from 100 to 0.003 μM. Enzyme/NADH solution: 100 mM NaPO4 (pH 7.4), 0.600 mM NADH, 1.0 μg/mL GSNO Reductase. 396 μL of the Enzyme/NADH solution is added to the cuvette to start the reaction. The cuvette is placed in the Cary 3E UV/Visible Spectrophotometer and the change in 340 nm absorbance/min at 25° C. is recorded for 3 minutes. The assays are done in triplicate for each compound concentration. IC50's for each compound are calculated using the standard curve analysis in the Enzyme Kinetics Module of SigmaPlot.
Final assay conditions: 100 mM NaPO4, pH 7.4, 0.240 mM GSNO, 0.300 mM NADH, 0.5 μg/mL GSNO Reductase, and 1% DMSO. Final volume: 800 μL/cuvette.

T1 sequence (P11766 whole entry): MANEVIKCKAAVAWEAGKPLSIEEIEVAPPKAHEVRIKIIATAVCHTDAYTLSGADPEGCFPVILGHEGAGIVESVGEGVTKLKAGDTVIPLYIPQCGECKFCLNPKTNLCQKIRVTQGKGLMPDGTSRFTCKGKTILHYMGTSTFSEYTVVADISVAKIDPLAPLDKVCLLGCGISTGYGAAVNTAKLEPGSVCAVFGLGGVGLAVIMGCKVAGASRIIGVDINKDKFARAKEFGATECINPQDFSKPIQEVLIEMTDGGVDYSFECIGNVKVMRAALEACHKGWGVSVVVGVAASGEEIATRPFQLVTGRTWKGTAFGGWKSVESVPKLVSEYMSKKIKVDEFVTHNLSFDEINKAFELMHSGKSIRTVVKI

What is called IC50 is the concentration that gives 50% inhibition. `O=C(O)c1ccc(-c2ccc3cc(O)ccc3n2)c(Cl)c1` [Example 8, 3-chloro-4-(6-hydroxyquinolin-2-yl)benzoic acid] returned an IC50 of under 100 nM.
